Test results as given in patent US6821508B2, “Composition and method for topical nail treatment” (Rutgers, the State University, priority 2001, dated 2004).
≈ marks a conversion by molar mass, not a printed value. Where two headings read alike, the source gives them in different places.

What was measured:
[1] = Enhancer screening: tritiated water permeation through nails in Franz-type diffusion cells (toenails); details: Table 2; pyrithione gels, each relative to its own control
Procedure: Frozen human toenails and fingernails were obtained from tissue banks based on a protocol for size, patient history, etc. The nails were thawed at room temperature for 1 hour, and the adhering skin and tissue was removed with a pair of scissors and a scalpel. The nails were cleaned by rinsing them in a mild detergent solution (1% solution of a standard liquid soap containing sodium and potassium dodecyl benzene sulfonate and ammonium laureth sulfate), followed by two rinses in deionized water (DI water). The thickness of the nails was measured with a micrometer, and the nails were immersed in 10 mL of DI water for 24 hours just prior to use to allow complete hydration and bring all the nails to the same condition for valid comparisons (Kobayashi, et al. (1998) Chem. Pharm. Bull. 46(11):1797-1802; Walters, et al. (1981) J Invest Dermatol 76:76-79; Mertin and Lippold (1997) J Pharm Pharmacol 49:30-34).
Franz-type diffusion cells (Crown Glass Co., Somerville, N.J.), specially designed to hold the human nail were used (Malhotra and Zatz (2000) J Cosmet Sci 51:367-377). The cleaned, trimmed nails were clamped into the diffusion cells. […]
All gels were prepared using the same general procedure. […] The apparent pH of the gels was measured. Prior to use, three 10 μL aliquots of the gel were analyzed by Liquid Scintillation Counting (LSC) to validate uniformity of spiking. […]

[2] = Solubility of clotrimazole in PEG-20-oleyl ether receptor fluid (HPLC); assay type: physicochemical; details: aqueous PEG-20-oleyl ether surfactant solution, 37 °C, aqueous with cosolvent or surfactant or cyclodextrin, thermodynamic from solid, read-out: Solubility of clotrimazole (Mean ± SEM, n = 3)
Procedure: Aqueous solutions of PEG-20-oleyl ether in concentrations of 0.5%, 1%, 2%, and 5% were prepared. Excess clotrimazole was added to vials containing 10 mL of surfactant solution. For each surfactant concentration, the solubility determination was done in triplicate. The vials were agitated in a mechanical shaker bath (Precision Scientific, Chicago, Ill.) maintained at 37° C. for 24 hours. The vials were then centrifuged (Fisher Scientific, Springfield, N.J.) at 4600 rpm for 30 minutes at 25° C. The supernatant was analyzed for drug concentration by High Performance Liquid Chromatography (HPLC).
The HPLC conditions were adapted from well known methods, for example Hoogerheide, et al. ((1981) J Assoc Off Anal Chem 64:864-869) and Rifai, et al. ((1995) Clin Chem 41:387-391). The HPLC analysis was performed using a Waters 600E System Controller Pump, Waters 717 Autoinjector, Waters 486 Tunable Absorbance Detector, and Waters 700 Data Module Integrator. A reverse-phase C-18 column (Waters Novapak, 3.9×150 mm, 4μ) was used. The mobile phase consisted of a mixture of 0.025M dibasic potassium phosphate (pH adjusted to approximately 6.3 with o-phosphoric acid) and HPLC grade methanol in the ratio 1:3. A flow rate of 1 mL/minute was maintained and the detector wavelength was set at 254 nm.
Standard solutions of clotrimazole in mobile phase were prepared in the concentration range of 5-200 μg/mL. The injection volume of standard and sample solutions was 20 μL.
The chromatography conditions yielded a linear standard curve (R^2=0.9995). From the standard curve, the solubility of clotrimazole in different concentrations of PEG-20-oleyl ether was quantitatively determined.

[3] = 25° C.; Hoogerheide and Wyka (1982); cited from earlier work

| solubility at 24 h ([2]; 0.5% PEG-20-oleyl ether in water) [µg/mL] | solubility at 24 h ([2]; 1.0% PEG-20-oleyl ether in water) [µg/mL] | solubility at 24 h ([2]; 2.0% PEG-20-oleyl ether in water) [µg/mL] | solubility at 24 h ([2]; 5.0% PEG-20-oleyl ether in water) [µg/mL] | Molecule | EFwater [1] | solubility in alcohol [3] [µg/mL] | solubility in water [3] [µg/mL] |
| --- | --- | --- | --- | --- | --- | --- | --- |
| – | – | – | – | zinc pyrithione [ZnPTO] | 1.13 | – | – |
| 75.2 (≈ 218 µM) | 191 (≈ 553 µM) | 499 (≈ 1450 µM) | 1350 (≈ 3930 µM) | Clc1ccccc1C(c1ccccc1)(c1ccccc1)n1ccnc1 [clotrimazole] | – | 95000 (≈ 275000 µM) | < 10 |
| – | – | – | – | [Na+].[O-][n+]1ccccc1[S-] [NaPTO, sodium pyrithione] | ~1 | – | – |
